# In patent EP0696280B1, “SUBSTITUTED PYRROLIDIN-3-YL-ALKYL-PIPERIDINES USEFUL AS TACHYKININ ANTAGONISTS” (MERRELL PHARMACEUTICALS INC., priority 1993, dated 1994):
# Counter-ions that a name gives are not always drawn. Like-named read-outs stand apart in the source and are kept apart here.
# Legend:
# [1] = biological target: T1, human jejunal NK2 receptor (Homo sapiens, UniProt P21452); test: Antagonism of iodinated tachykinin binding to NK2 receptor (125iodohistidyl-1-neurokinin A, HSKR-1 cell membranes)
# T1 construct: expressed in transfected cells; host or cells: HSKR-1 cells (mouse 3T3 fibroblasts)
# T1 sequence (P21452 1-398): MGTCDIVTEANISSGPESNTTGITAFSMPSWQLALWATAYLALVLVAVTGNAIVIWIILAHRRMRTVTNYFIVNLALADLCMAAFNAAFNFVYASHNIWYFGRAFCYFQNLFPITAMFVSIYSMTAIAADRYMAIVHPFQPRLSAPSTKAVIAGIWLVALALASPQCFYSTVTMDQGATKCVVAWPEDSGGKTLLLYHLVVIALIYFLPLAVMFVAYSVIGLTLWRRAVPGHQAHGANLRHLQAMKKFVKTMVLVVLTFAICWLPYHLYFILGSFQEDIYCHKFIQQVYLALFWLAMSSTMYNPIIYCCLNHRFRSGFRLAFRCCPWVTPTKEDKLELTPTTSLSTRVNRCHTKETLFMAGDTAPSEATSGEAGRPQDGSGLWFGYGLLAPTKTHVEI
# Method: The NK1 receptor affinity of proposed tachykinin antagonists was devaluated in guinea pig lungs (Keystone Biologicals, Cleveland, OH), affinity for the NK2 receptor evaluated in HSKR-1 cells (which are mouse 3T3 fibroblasts expressing the human jejunal NK2 receptor) and NK-3 receptor affinity was evaluated in freshly collected guinea pig cerebral cortex. Tissues or cells were homogenized with a Polytron in 15 volumes of 50 mM Tris-HCl buffer (pH 7.4, 4°C) and centrifuged. The pellet was resuspended in Tris-HCl buffer and was centrifuged; the pellet was washed twice by resuspension. The final pellet was resuspended at a concentration of 40 mg/ml for tissues (guinea pig lung and cerebral cortex) and 20 mg/ml for cells in incubation buffer and remained at room temperature for at least 15 min prior to use. Receptor binding was initiated by addition of 250 µl membrane preparation in duplicate to 0.1 nM of the following radioligands: ^125I-Bolton Hunter Lys-3 labeled substance P; ^125iodohistidyl-1-neurokinin A; and ^125I-Bolton Hunter labeled Lys-4 eledoisin in a final volume of 500 µl of buffer containing 50 mM Tris-HCl (pH 7.4 at room temperature), 0.1% bovine serum albumin, 2 mM MnCl2, 40 µg/ml bacitracin, 4 µg/ml leupeptin and chymostatin, 1 µM thiorphan and various doses of the putative tachykinin antagonists. Incubations were performed at room temperature for 90 min (NK1 receptor assays) or 2 hr (NK2 and NK3 receptor assays); binding was terminated by addition of 50 mM Tris-HCl buffer (pH 7.4, 4°C) and filtration under vacuum through GF/B filters presoaked with 0.1% polyethyleneimine (NK1 receptor assays) or 0.5% bovine serum albumin (NK2 and NK3 receptor assays). Filter bound radioactivity was quantitated in a gamma counter. Nonspecific binding was defined as binding in the presence of 1 µM substance P, neurokinin A, or eledoisin. Specific binding was calculated by subtracting nonspecific binding from total binding. Competition of iodinated SP, NKA, or eledoisin binding by test compounds or standards was expressed as a percentage of this maximum competition. IC50 values (concentration required to inhibit 50% of receptor binding) were generated for each of the test compounds by nonlinear regression using an iterative curve fitting program (GraphPAD Inplot, San Diego, CA).
# NK1 receptor = biological target: T2, NK1 receptor (Homo sapiens, UniProt P25103); test: Antagonism of NK1 receptor mediated (SP-induced) phosphatidylinositol turnover in UC11 cells; format: cell-based
# T2 construct: endogenous in cells; host or cells: UC11 cells
# T2 sequence (P25103 whole entry): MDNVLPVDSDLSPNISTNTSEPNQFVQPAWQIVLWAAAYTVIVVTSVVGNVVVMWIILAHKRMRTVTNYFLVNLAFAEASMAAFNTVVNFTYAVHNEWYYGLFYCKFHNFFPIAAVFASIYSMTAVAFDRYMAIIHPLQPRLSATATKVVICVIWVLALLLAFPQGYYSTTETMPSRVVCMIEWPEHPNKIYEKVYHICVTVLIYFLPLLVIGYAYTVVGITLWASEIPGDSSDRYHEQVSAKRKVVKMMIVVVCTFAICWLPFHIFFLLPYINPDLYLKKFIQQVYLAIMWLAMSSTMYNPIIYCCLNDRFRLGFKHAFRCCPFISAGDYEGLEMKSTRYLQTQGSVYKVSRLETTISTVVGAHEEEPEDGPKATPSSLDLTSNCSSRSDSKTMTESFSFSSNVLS
# Method: Tachykinin-mediated inositol phosphate accumulation was measured in UCll or SKLKB82#3 cells in the presence and absence of NK1 or NK2 receptor antagonists, respectively. Tissues were incubated in Krebs-Henseleit buffer at 37°C with 95% O2-5% CO2 gassing. Tissues were then incubated with fresh buffer containing 100 µCi of myo-[2-^3H(N)] inositol at 37°C for 60 min with gentle gassing. After washing twice at room temperature in 5 ml buffer containing 10 mM LiCl, tissues were incubated for 30 min at room temperature with a buffer change at 15 min. Buffer was removed and Krebs-Henseleit buffer (containing 40 µg/ml bacitracin, 4 µg/ml each of leupeptin and chymostatin, 0.1% bovine serum albumin and 10 mM each of thiorphan and LiCl) added. After 15 min, SP was added to UCll cells or NKA to SKLKB82#3 cells at various concentrations to start the reaction. After incubation for 60 min at room temperature the reaction was terminated by addition of 930 µl chloroform: methanol (1:2 by volume) to each tube, followed by 310 µl chloroform and 310 µl doubly distilled water. Samples were vortexed, centrifuged, and 0.9 ml of the aqueous (top) phase removed and added to 2 ml ddH2O. The mixture was vortexed and loaded onto a 50% Bio-Rad AG 1-X8 (formate form, 100-200 mesh) exchange column (Bio-Rad Laboratories, Hercules, CA). The columns were washed, in order, with: 1) 10 ml doubly distilled water, 2) 5 ml of 5 mM disodium tetraborate/60 mM sodium formate, and 3) 5 ml of 1 M ammonium formate/0.1 M formic acid. The third elution was collected and 1 ml counted in 7 ml scintillation fluid. A 50 µl aliquot of the organic (bottom) phase was removed, dried in a scintillation vial and counted in 7 ml scintillation fluid.
# The ratio of DPM in the aqueous phase aliquot (total inositol phosphates) to the DPM in the 50 µl organic phase aliquot (total [^3H]inositol incorporated) was calculated for each sample. Data are expressed as a percent of agonist-induced accumulation of [^3H]-inositol phosphates over basal levels. The ratios in the presence of test compound and/or standards were compared to the ratios for control samples (i.e. no stimulating agonist). Dose-response graphs were constructed and the abilities of the test compounds to inhibit tachykinin-induced phosphatidylinositol turnover determined with the aid of a computer program. […] Data is expressed as percent stimulation of total inositol phosphate accumulation over basal levels and normalized to the maximum response produced by SP. […] Schild analysis is performed using dose response curves (such as those presented in Figures 1a and 1b) to obtain a value indicative of the strength of a competitive antagonist and is expressed as the pA2, which is the negative logarithm of the molar concentration of antagonist which reduces the effect of a dose of agonist to one-half of that expected at the dose of agonist. […]
# Values are mean (95% confidence limits) derived from Schild analysis of 2-3 experiments per compound per receptor.
# [2] = Schild analysis, SP in UC11 cells, mean (95% confidence limits), 2-3 experiments
Structure (SMILES),"IC50 ([1]; HSKR-1 cells (mouse 3T3 fibroblasts expressing human jejunal NK2 receptor), mean of several experiments, read-out: NK-2 IC50)",Kb (NK1 receptor),NK-1 RECEPTOR -SLOPE (NK1 receptor; [2]),IC50 [1],"Kb (NK1 receptor; Schild analysis, SP in UC11 cells, mean (95% confidence limits), 2-3 experiments, read-out: NK-1 RECEPTOR pA2 (converted))",affinity for NK2 receptors ([1]; result in words),"antagonism of the receptor mediated SP induced PI turnover (NK1 receptor; UC11 cells, Figure 1a, result in words)"
"COc1cccc(OC)c1C(=O)N1CCC(CCN2CCC(C(N)=O)(c3ccccc3)CC2)(c2ccc(Cl)c(Cl)c2)C1 (racemic) [Example 5A, 1-[2-[3-(3,4-dichloro-phenyl-3-yl)-1-(2,6-dimethoxy-benzoyl)-pyrrolidin-3-yl]-ethyl]-4-phenyl-piperidine-4-carboxylic acid amide hydrochloride]",40 nM,47.9 nM,1.17 (0.41-1.93),–,–,–,–
"COc1cc(C(=O)N2CCC(CCN3CCC(C(N)=O)(c4ccccc4)CC3)(c3ccc(Cl)c(Cl)c3)C2)cc(OC)c1OC (racemic) [Example 3A, 1-[2-[3-(3,4-dichloro-phenyl-3-yl)-1-(3,4,5-trimethoxy-benzoyl)-pyrrolidin-3-yl]-ethyl] -4-phenyl-piperidine-4-carboxylic acid amide hydrochloride]",–,–,0.90 (0.65-1.15),21 nM,12.3 nM,–,–
"COc1cc(C(=O)N2CCC(CCN3CCC(C(N)=O)(c4ccccc4)CC3)(c3ccc(Cl)c(Cl)c3)C2)cc(OC)c1OC (stereo not drawn) [Example 3, 1-[2-[3-(3,4-dichloro-phenyl)-1-(3,4,5-trimethoxy-benzoyl)-pyrrolidin-3-yl]-ethyl]-4-phenyl-piperidine-4-carboxylic acid amide]",–,–,–,15 nM,–,high affinity,dose related antagonism
